# How the values were obtained:
# Experiment in all cases: relative viability (nuclei count vs DMSO), 5 days (fraction); higher = more cells survive
# EMC-BAC-2 = test system: EMC-BAC-2
# Procedure, shortened: (§1)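 For relative viability, nuclei counts in treated wells were divided by those in vehicle wells. Lung cancer cell lines had been pin-tool dosed in 1536-well plates the day after seeding and cultured for 5 days, then fixed and stained in one step (final 0.05% Triton X-100, 1% formaldehyde, 1 ug/ml Hoechst) and imaged at 4×. Doses were one drug alone or a fixed anchor-drug dose plus five library-drug doses (not always all listed) in √10 steps, and values are duplicate-plate medians.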
# EPLC-272H = test system: EPLC-272H
# Procedure, shortened: as §1
# H3255 = test system: H3255
# Procedure, shortened: as §1
# HOP-62 = test system: HOP-62
# Procedure, shortened: as §1
# LCLC-97TM1 = test system: LCLC-97TM1
# Procedure, shortened: as §1
# LXF-289 = test system: LXF-289
# Procedure, shortened: as §1
# NCI-H1563 = test system: NCI-H1563
# Procedure, shortened: as §1
# NCI-H1734 = test system: NCI-H1734
# Procedure, shortened: as §1
# NCI-H1915 = test system: NCI-H1915
# Procedure, shortened: as §1
# NCI-H1993 = test system: NCI-H1993
# Procedure, shortened: as §1
# NCI-H2009 = test system: NCI-H2009
# Procedure, shortened: as §1
# NCI-H2023 = test system: NCI-H2023
# Procedure, shortened: as §1
# NCI-H2085 = test system: NCI-H2085
# Procedure, shortened: as §1
# NCI-H2126 = test system: NCI-H2126
# Procedure, shortened: as §1
# NCI-H2347 = test system: NCI-H2347
# Procedure, shortened: as §1
# NCI-H322M = test system: NCI-H322M
# Procedure, shortened: as §1
# NCI-H647 = test system: NCI-H647
# Procedure, shortened: as §1
# NCI-H661 = test system: NCI-H661
# Procedure, shortened: as §1
# NCI-H727 = test system: NCI-H727
# Procedure, shortened: as §1
# PC-14 = test system: PC-14
# Procedure, shortened: as §1
# SK-LU-1 = test system: SK-LU-1
# Procedure, shortened: as §1
# SW 1573 = test system: SW 1573
# Procedure, shortened: as §1
structure (smiles),measurement,setting,value
Cc1sc2c(c1C)C(c1ccc(Cl)cc1)=N[C@@H](CC(=O)OC(C)(C)C)c1nnc(C)n1-2 [JQ1] + N=C(N)NC(=N)NCCc1ccccc1 [Phenformin] (partner 250 µM),relative viability,EMC-BAC-2; first compound 0.04 µM,0.551
same,relative viability,EMC-BAC-2; first compound 0.1265 µM,0.326
same,relative viability,EMC-BAC-2; first compound 0.4 µM,0.454
same,relative viability,EMC-BAC-2; first compound 1.265 µM,0.267
same,relative viability,EMC-BAC-2; first compound 4 µM,0.264
same,relative viability,EPLC-272H; first compound 0.04 µM,0.33
same,relative viability,EPLC-272H; first compound 0.1265 µM,0.262
same,relative viability,EPLC-272H; first compound 0.4 µM,0.249
same,relative viability,EPLC-272H; first compound 1.265 µM,0.294
same,relative viability,EPLC-272H; first compound 4 µM,0.188
same,relative viability,H3255; first compound 0.04 µM,0.349
same,relative viability,H3255; first compound 0.1265 µM,0.348
same,relative viability,H3255; first compound 0.4 µM,0.35
same,relative viability,H3255; first compound 1.265 µM,0.36
same,relative viability,H3255; first compound 4 µM,0.36
same,relative viability,HOP-62; first compound 0.04 µM,0.633
same,relative viability,HOP-62; first compound 0.1265 µM,0.547
same,relative viability,HOP-62; first compound 0.4 µM,0.622
same,relative viability,HOP-62; first compound 1.265 µM,0.182
same,relative viability,HOP-62; first compound 4 µM,0.102
same,relative viability,LCLC-97TM1; first compound 0.04 µM,0.423
same,relative viability,LCLC-97TM1; first compound 0.1265 µM,0.42
same,relative viability,LCLC-97TM1; first compound 0.4 µM,0.446
same,relative viability,LCLC-97TM1; first compound 1.265 µM,0.328
same,relative viability,LCLC-97TM1; first compound 4 µM,0.203
same,relative viability,LXF-289; first compound 0.04 µM,0.518
same,relative viability,LXF-289; first compound 0.1265 µM,0.474
same,relative viability,LXF-289; first compound 0.4 µM,0.444
same,relative viability,LXF-289; first compound 1.265 µM,0.323
same,relative viability,LXF-289; first compound 4 µM,0.316
same,relative viability,NCI-H1563; first compound 0.04 µM,0.672
same,relative viability,NCI-H1563; first compound 0.1265 µM,0.571
same,relative viability,NCI-H1563; first compound 0.4 µM,0.682
same,relative viability,NCI-H1563; first compound 1.265 µM,0.596
same,relative viability,NCI-H1563; first compound 4 µM,0.568
same,relative viability,NCI-H1734; first compound 0.04 µM,0.326
same,relative viability,NCI-H1734; first compound 0.1265 µM,0.312
same,relative viability,NCI-H1734; first compound 0.4 µM,0.336
same,relative viability,NCI-H1734; first compound 1.265 µM,0.251
same,relative viability,NCI-H1734; first compound 4 µM,0.23
same,relative viability,NCI-H1915; first compound 0.04 µM,0.347
same,relative viability,NCI-H1915; first compound 0.1265 µM,0.334
same,relative viability,NCI-H1915; first compound 0.4 µM,0.329
same,relative viability,NCI-H1915; first compound 1.265 µM,0.212
same,relative viability,NCI-H1915; first compound 4 µM,0.177
same,relative viability,NCI-H1993; first compound 0.04 µM,0.49
same,relative viability,NCI-H1993; first compound 0.1265 µM,0.55
same,relative viability,NCI-H1993; first compound 0.4 µM,0.561
same,relative viability,NCI-H1993; first compound 1.265 µM,0.557
same,relative viability,NCI-H1993; first compound 4 µM,0.572
same,relative viability,NCI-H2009; first compound 0.04 µM,0.477
same,relative viability,NCI-H2009; first compound 0.1265 µM,0.339
same,relative viability,NCI-H2009; first compound 0.4 µM,0.291
same,relative viability,NCI-H2009; first compound 1.265 µM,0.205
same,relative viability,NCI-H2009; first compound 4 µM,0.223
same,relative viability,NCI-H2023; first compound 0.04 µM,0.399
same,relative viability,NCI-H2023; first compound 0.1265 µM,0.354
same,relative viability,NCI-H2023; first compound 0.4 µM,0.307
same,relative viability,NCI-H2023; first compound 1.265 µM,0.177
same,relative viability,NCI-H2023; first compound 4 µM,0.147
same,relative viability,NCI-H2085; first compound 0.04 µM,0.712
same,relative viability,NCI-H2085; first compound 0.1265 µM,0.611
same,relative viability,NCI-H2085; first compound 0.4 µM,0.552
same,relative viability,NCI-H2085; first compound 1.265 µM,0.393
same,relative viability,NCI-H2085; first compound 4 µM,0.426
same,relative viability,NCI-H2126; first compound 0.04 µM,0.552
same,relative viability,NCI-H2126; first compound 0.1265 µM,0.555
same,relative viability,NCI-H2126; first compound 0.4 µM,0.489
same,relative viability,NCI-H2126; first compound 1.265 µM,0.39
same,relative viability,NCI-H2126; first compound 4 µM,0.411
same,relative viability,NCI-H2347; first compound 0.04 µM,0.332
same,relative viability,NCI-H2347; first compound 0.1265 µM,0.504
same,relative viability,NCI-H2347; first compound 0.4 µM,0.323
same,relative viability,NCI-H2347; first compound 1.265 µM,0.358
same,relative viability,NCI-H2347; first compound 4 µM,0.233
same,relative viability,NCI-H322M; first compound 0.04 µM,0.686
same,relative viability,NCI-H322M; first compound 0.1265 µM,0.746
same,relative viability,NCI-H322M; first compound 0.4 µM,0.66
same,relative viability,NCI-H322M; first compound 1.265 µM,0.373
same,relative viability,NCI-H322M; first compound 4 µM,0.417
same,relative viability,NCI-H647; first compound 0.04 µM,0.433
same,relative viability,NCI-H647; first compound 0.1265 µM,0.306
same,relative viability,NCI-H647; first compound 0.4 µM,0.229
same,relative viability,NCI-H647; first compound 1.265 µM,0.0637
same,relative viability,NCI-H647; first compound 4 µM,0.0562
same,relative viability,NCI-H661; first compound 0.04 µM,0.264
same,relative viability,NCI-H661; first compound 0.1265 µM,0.315
same,relative viability,NCI-H661; first compound 0.4 µM,0.286
same,relative viability,NCI-H661; first compound 1.265 µM,0.302
same,relative viability,NCI-H661; first compound 4 µM,0.282
same,relative viability,NCI-H727; first compound 0.04 µM,0.458
same,relative viability,NCI-H727; first compound 0.1265 µM,0.282
same,relative viability,NCI-H727; first compound 0.4 µM,0.368
same,relative viability,NCI-H727; first compound 1.265 µM,0.393
same,relative viability,NCI-H727; first compound 4 µM,0.343
same,relative viability,PC-14; first compound 0.04 µM,0.485
same,relative viability,PC-14; first compound 0.1265 µM,0.237
same,relative viability,PC-14; first compound 0.4 µM,0.432
same,relative viability,PC-14; first compound 1.265 µM,0.154
same,relative viability,PC-14; first compound 4 µM,0.167
same,relative viability,SK-LU-1; first compound 0.04 µM,0.607
same,relative viability,SK-LU-1; first compound 0.1265 µM,0.386
same,relative viability,SK-LU-1; first compound 0.4 µM,0.458
same,relative viability,SK-LU-1; first compound 1.265 µM,0.171
same,relative viability,SK-LU-1; first compound 4 µM,0.136
same,relative viability,SW 1573; first compound 0.04 µM,0.331
same,relative viability,SW 1573; first compound 0.1265 µM,0.304
same,relative viability,SW 1573; first compound 0.4 µM,0.402
same,relative viability,SW 1573; first compound 1.265 µM,0.231
same,relative viability,SW 1573; first compound 4 µM,0.233
